Data as given in US20250215013A1, “SUBSTITUTED TRICYCLIC COMPOUNDS AS PARP INHIBITORS AND THE USE THEREOF” (IMPACT THERAPEUTICS (SHANGHAI), INC., priority 2022, published 2025).
pIC50: −log10 of the molar value.

Tests used:
[1] = target: PDE3A (Homo sapiens (Human), UniProt Q14432); experiment: PDE3A fluorescence polarization (FP) assay; format: biochemical; details: PDE3A enzyme activity, FAM-cAMP substrate
Method: A PDE3A fluorescence polarization (FP) assay in a multi-step format was performed using black, round bottom 384-well plates (Corning, 4514). The testing compounds were serially diluted from stock solutions to 11 concentrations with a 3-fold dilution factor using DMSO. Fifty nl of compound dilutions was mixed with 5 μl of reaction buffer (10 mM Tris-HCl, pH 7.2, 10 mM MgCl2, 0.05% NaN3, 0.1% phosphate-free BSA) containing 0.2 μM FAM-cAMP (BPS, 60200) and 2 nM PDE3A (Sino Biological, 11908-H20B1) enzyme, and incubated for 60 min at 25° C. Afterwards, 15 μl binding agent mixture (Molecular Devices, R8124) was added to each well and the plate was incubated for 60 min at 25° C. The plate was loaded to a BMG PHERAstar FSX to read Fluorescence Polarization (FP) values at a setting of: Ex: 485 nm and Em: 520 nm. Emission light intensity with polarizers parallel (Emi) and emission light intensity with polarizers perpendicular (Emi) were recorded. The Polarization (mP) values were calculated using the following formula: mP=(SignalEml−SignalEm⊥)/(SignalEml+SignalEm⊥).
• 1) The inhibition % of a compound dose is calculated as:
[formula] • wherein mPMin and mPMax refer to the polarization readings in the condition of substrate only and substrate+enzyme, respectively. • 2) The IC50 values were calculated from non-linear curve fitting using following regression equation using a commercial curve fitting software GraphPad Prism 9.2.0.
[formula] • wherein, X refers to Log of compound concentration and Y refers to % Inhibition.

[2] = test system: MDA-MB-436 cells; experiment: Growth inhibition assay against BRCA mutant human breast cancer MDA-MB-436 cell line (CCK-8); format: cell-based; details: proliferation of MDA-MB-436 cells, 7 days
[3] = target: recombinant poly(ADP-ribose) polymerase 1 (PARP1) (Homo sapiens (Human), UniProt P09874)
Chain of recombinant poly(ADP-ribose) polymerase 1 (PARP1) (P09874 whole entry): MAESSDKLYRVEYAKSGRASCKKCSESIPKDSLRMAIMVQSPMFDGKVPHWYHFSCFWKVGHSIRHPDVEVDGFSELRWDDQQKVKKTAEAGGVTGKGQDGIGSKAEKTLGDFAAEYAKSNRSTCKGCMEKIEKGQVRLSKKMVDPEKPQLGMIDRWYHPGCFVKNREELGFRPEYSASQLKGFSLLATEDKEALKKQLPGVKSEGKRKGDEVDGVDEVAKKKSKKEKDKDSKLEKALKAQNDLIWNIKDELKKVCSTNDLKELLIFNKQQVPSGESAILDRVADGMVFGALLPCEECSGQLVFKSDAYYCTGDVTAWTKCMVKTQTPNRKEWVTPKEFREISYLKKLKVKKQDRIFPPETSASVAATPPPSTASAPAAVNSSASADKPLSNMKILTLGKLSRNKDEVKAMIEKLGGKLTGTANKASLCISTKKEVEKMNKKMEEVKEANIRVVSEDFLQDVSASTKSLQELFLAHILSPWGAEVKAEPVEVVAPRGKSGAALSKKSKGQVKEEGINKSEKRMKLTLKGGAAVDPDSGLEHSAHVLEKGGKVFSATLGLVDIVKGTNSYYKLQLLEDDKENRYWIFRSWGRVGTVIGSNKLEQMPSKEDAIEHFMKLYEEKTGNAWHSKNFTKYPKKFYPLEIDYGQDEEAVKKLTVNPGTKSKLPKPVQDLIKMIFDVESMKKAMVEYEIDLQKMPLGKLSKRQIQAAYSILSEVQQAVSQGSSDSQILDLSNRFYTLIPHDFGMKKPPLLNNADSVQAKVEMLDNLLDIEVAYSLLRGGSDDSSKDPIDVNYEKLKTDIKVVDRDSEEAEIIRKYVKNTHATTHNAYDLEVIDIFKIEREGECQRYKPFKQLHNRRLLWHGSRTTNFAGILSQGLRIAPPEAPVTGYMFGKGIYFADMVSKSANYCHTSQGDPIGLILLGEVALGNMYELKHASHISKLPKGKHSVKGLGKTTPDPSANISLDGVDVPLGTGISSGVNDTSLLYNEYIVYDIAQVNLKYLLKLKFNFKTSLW

[4] = target: recombinant poly(ADP-ribose) polymerase 2 (PARP2); experiment: PARP2 chemiluminescent assay; format: biochemical; details: inhibition of PARP2 enzyme activity, chemiluminescence

Chain of PDE3A (Q14432 whole entry): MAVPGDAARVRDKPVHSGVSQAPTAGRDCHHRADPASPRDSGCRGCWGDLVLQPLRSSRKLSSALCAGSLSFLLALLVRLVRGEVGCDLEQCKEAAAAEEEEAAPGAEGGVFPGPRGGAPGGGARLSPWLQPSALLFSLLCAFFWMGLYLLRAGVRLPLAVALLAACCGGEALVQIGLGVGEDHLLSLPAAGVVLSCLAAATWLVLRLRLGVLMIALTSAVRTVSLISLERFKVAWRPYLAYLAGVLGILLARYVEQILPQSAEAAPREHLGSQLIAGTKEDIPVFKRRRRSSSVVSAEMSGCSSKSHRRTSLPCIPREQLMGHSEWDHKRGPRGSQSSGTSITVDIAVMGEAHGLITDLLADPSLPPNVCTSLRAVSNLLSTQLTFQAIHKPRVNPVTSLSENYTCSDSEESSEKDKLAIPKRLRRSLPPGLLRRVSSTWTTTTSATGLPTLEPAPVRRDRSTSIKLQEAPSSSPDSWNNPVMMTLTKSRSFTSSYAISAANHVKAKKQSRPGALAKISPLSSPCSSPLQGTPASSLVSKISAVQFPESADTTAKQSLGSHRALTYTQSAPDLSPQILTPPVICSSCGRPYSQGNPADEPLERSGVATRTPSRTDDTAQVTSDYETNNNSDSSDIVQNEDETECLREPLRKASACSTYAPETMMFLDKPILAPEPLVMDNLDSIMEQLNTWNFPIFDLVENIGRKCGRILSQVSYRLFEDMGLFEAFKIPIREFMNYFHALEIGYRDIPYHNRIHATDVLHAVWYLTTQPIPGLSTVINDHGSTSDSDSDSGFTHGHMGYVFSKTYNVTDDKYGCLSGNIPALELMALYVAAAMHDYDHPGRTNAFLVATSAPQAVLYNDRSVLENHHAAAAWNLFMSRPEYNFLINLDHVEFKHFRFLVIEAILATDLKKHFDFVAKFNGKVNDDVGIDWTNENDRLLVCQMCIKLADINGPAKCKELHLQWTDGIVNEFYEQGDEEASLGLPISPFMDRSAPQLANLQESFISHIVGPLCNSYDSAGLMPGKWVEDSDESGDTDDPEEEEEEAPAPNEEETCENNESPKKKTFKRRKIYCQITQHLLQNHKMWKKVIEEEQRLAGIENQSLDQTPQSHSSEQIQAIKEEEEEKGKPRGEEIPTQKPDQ

Question: `CNC(=O)c1ccc(N2CCN(Cc3ccc4c(c3)[nH]c(=O)c3occc34)CC2)c(C)n1` [Example 2, 7-((4-(2-methyl-6-(methylcarbamoyl)pyridin-3-yl)piperazin-1-yl)methyl)furo[2,3-c]quinolin-4(5H)-one] was tested. Which pIC50 [1] did it give?
Answer: 5.84

Question: With `CNC(=O)c1ccc(N2CCN(Cc3ccc4c(c3)[nH]c(=O)c3ccoc34)CC2)c(C)n1` [Example 6, 7-((4-(2-methyl-6-(methylcarbamoyl)pyridin-3-yl)piperazin-1-yl)methyl)furo[3,2-c]quinolin-4(5H)-one] as the compound, how does the pIC50 [1] read?
Answer: 6.24

Question: How did the pIC50 ([2]; Homo sapiens, MDA-MB-436, […]) turn out when `CNC(=O)c1ccc(N2CCN(Cc3cc(F)c4c(c3)[nH]c(=O)c3occc34)CC2)c(C)n1` [Example 40, 9-fluoro-7-((4-(2-methyl-6-(methylcarbamoyl)pyridin-3-yl)piperazin-1-yl)methyl)furo[2,3-c]quinolin-4(5H)-one] was run?
Answer: 8.61

Question: What about the pIC50 [1] of the same compound?
Answer: 6.16

Question: What does the source list for `CNC(=O)c1ccc(N2CCN(Cc3ccc4c(c3)[nH]c(=O)c3c(F)cnn34)CC2)c(F)n1` [Example 49, 7-((4-(2-fluoro-6-(methylcarbamoyl)pyridin-3-yl)piperazin-1-yl)methyl)-3-fluoropyrazolo[1,5-a]quinoxalin-4(5H)-one]?
Answer: pIC50 ([2]; Homo sapiens, MDA-MB-436, […]): 8.98; pIC50 [1]: 6.06

Question: What does the source list for `CNC(=O)c1ccc(N2CCN(Cc3ccc4c([nH]c(=O)c5c(Cl)cnn54)c3F)CC2)c(F)n1` [Example 60, 7-((4-(2-fluoro-6-(methylcarbamoyl)pyridin-3-yl)piperazin-1-yl)methyl)-6-fluoro-3-chloro-pyrazolo[1,5-a]quinoxalin-4(5H)-one]?
Answer: pIC50 ([2]; Homo sapiens, MDA-MB-436, […]): 8.85; pIC50 [1]: < 4.52

Question: `O=C(NC1CC1)c1ccc(N2CCN(Cc3ccc4c([nH]c(=O)c5occc54)c3F)CC2)c(F)n1` [Example 67, 7-((4-(2-fluoro-6-(cyclopropylcarbamoyl)pyridin-3-yl)piperazin-1-yl)methyl)-6-fluorofuro[2,3-c]quinolin-4(5H)-one] was tested. Which pIC50 ([2]; Homo sapiens, MDA-MB-436, […]) did it give?
Answer: 8.18

Question: What about the pIC50 [1] of the same compound?
Answer: 4.86

Question: With `CNC(=O)c1ccc(N2CCN(Cc3ccc4c([nH]c(=O)n5nccc45)c3F)CC2)c(C)n1` [Example 72, 8-((4-(2-methyl-6-(methylcarbamoyl)pyridin-3-yl)piperazin-1-yl)methyl)-7-fluoropyrazolo[1,5-c]quinazolin-5(6H)-one] as the compound, how does the pIC50 [3] read?
Answer: 8.97

Question: And the IC50 [4]?
Answer: 1830 nM

Question: What about the pIC50 [2] of the same compound?
Answer: 7.54

Question: What does the source list for `CNC(=O)c1ccc(N2CCN(Cc3ccc4c5c(c(=O)[nH]c4c3)CNC5)CC2)c(C)n1` [Example 74, 7-((4-(6-methylcarbamoyl-2-methylpyridin-3-yl)piperazin-1-yl)methyl)-1,2,3,5-tetrahydro-4H-pyrrolo[3,4-c]quinolin-4-one]?
Answer: pIC50 [3]: 8.48; IC50 [4]: 2980 nM; pIC50 ([2]; Homo sapiens, MDA-MB-436, […]): 7.24

Question: How did the pIC50 [3] turn out when `CNC(=O)c1ccc(N2CCN(Cc3ccc4c5c(c(=O)[nH]c4c3)CN(C)C5)CC2)c(C)n1` [Example 75, 7-((4-(6-methylcarbamoyl-2-methylpyridin-3-yl)piperazin-1-yl)methyl)-2-methyl-1,2,3,5-tetrahydro-4H-pyrrolo[3,4-c]quinolin-4-one] was run?
Answer: 8.08

Question: What about the IC50 [4] of the same compound?
Answer: 2380 nM

Question: And the pIC50 ([2]; Homo sapiens, MDA-MB-436, […])?
Answer: 7.96

Question: `CNC(=O)c1ccc(N2CCN(Cc3cc4[nH]c(=O)c5cn(C)nc5c4cc3F)CC2)c(C)n1` [Example 89, 7-((4-(2-methyl-6-(methylcarbamoyl)pyridin-3-yl)piperazin-1-yl)methyl)-8-fluoro-2-methyl-2,5-dihydro-4H-pyrazolo[4,3-c]quinolin-4-one] was tested. Which pIC50 [3] did it give?
Answer: 8.24

Question: And the IC50 [4]?
Answer: 3410 nM

Question: And the pIC50 ([2]; Homo sapiens, MDA-MB-436, […])?
Answer: 7.92

Question: How did the pIC50 [3] turn out when `CNC(=O)c1ccc(N2CCN(Cc3cc4[nH]c(=O)c5cn(C)nc5c4cc3F)CC2)c(F)n1` [Example 91, 7-((4-(2-fluoro-6-(methylcarbamoyl)pyridin-3-yl)piperazin-1-yl)methyl)-8-fluoro-2-methyl-2,5-dihydro-4H-pyrazolo[4,3-c]quinolin-4-one] was run?
Answer: 8.37

Question: And the IC50 [4]?
Answer: 942 nM

Question: What about the pIC50 ([2]; Homo sapiens, MDA-MB-436, […]) of the same compound?
Answer: 7.68

Question: How did the pIC50 ([2]; Homo sapiens, MDA-MB-436, […]) turn out when `CNC(=O)c1ccc(N2CCN(Cc3ccc4c([nH]c(=O)c5nn(C)cc54)c3F)CC2)c(F)n1` [Example 93, 6-fluoro-7-((4-(2-fluoro-6-(methylcarbamoyl)pyridin-3-yl)piperazin-1-yl)methyl)-2-methyl-2,5-dihydro-4H-pyrazolo[3,4-c]quinolin-4-one] was run?
Answer: 8.42

Question: What about the pIC50 [1] of the same compound?
Answer: < 4.52

Question: `CNC(=O)c1ccc(N2CCN(Cc3ccc4c(c3)[nH]c(=O)c3[nH]ccc34)CC2)c(F)n1` [Example 99, 7-((4-(2-fluoro-6-(methylcarbamoyl)pyridin-3-yl)piperazin-1-yl)methyl)-3,5-dihydro-4H-pyrrolo[2,3-c]quinolin-4-one] was tested. Which pIC50 [3] did it give?
Answer: 8.23

Question: And the IC50 [4]?
Answer: > 10000 nM

Question: What about the pIC50 ([2]; Homo sapiens, MDA-MB-436, […]) of the same compound?
Answer: 7.27

Question: What does the source list for `CNC(=O)c1ccc(N2CCN(Cc3ccc4c([nH]c(=O)c5occc54)c3C)CC2)c(F)n1` [Example 103, 7-((4-(2-fluoro-6-(methylcarbamoyl)pyridin-3-yl)piperazin-1-yl)methyl)-6-methylfuro[2,3-c]quinolin-4(5H)-one]?
Answer: pIC50 [3]: 8.37; IC50 [4]: 667 nM; pIC50 ([2]; Homo sapiens, MDA-MB-436, […]): 7.90

Question: `CNC(=O)c1ccc(N2CCN(Cc3cc4[nH]c(=O)c5occc5c4cc3C)CC2)c(F)n1` [Example 104, 7-((4-(2-fluoro-6-(methylcarbamoyl)pyridin-3-yl)piperazin-1-yl)methyl)-8-methylfuro[2,3-c]quinolin-4(5H)-one] was tested. Which pIC50 [3] did it give?
Answer: 8.23

Question: What about the IC50 [4] of the same compound?
Answer: 487 nM

Question: And the pIC50 ([2]; Homo sapiens, MDA-MB-436, […])?
Answer: 7.49

Question: Which results are given for `CNC(=O)c1ccc(N2CCN(Cc3ccc4c(c3)[nH]c(=O)c3ccoc34)CC2)cn1` [Example 118, 7-((4-(6-(methylcarbamoyl)pyridin-3-yl)piperazin-1-yl)methyl)furo[3,2-c]quinolin-4(5H)-one]?
Answer: pIC50 [3]: 9.28; IC50 [4]: 273 nM; pIC50 ([2]; Homo sapiens, MDA-MB-436, […]): 8.81

Question: With `CNC(=O)c1ccc(N2CCN(Cc3cc4[nH]c(=O)n5nccc5c4cc3F)CC2)c(F)n1` [Example 120, 8-((4-(2-fluoro-6-(methylcarbamoyl)pyridin-3-yl)piperazin-1-yl)methyl)-9-fluoropyrazolo[1,5-c]quinazolin-5(6H)-one] as the compound, how does the pIC50 [3] read?
Answer: 8.73

Question: What about the IC50 [4] of the same compound?
Answer: 683 nM

Question: What about the pIC50 ([2]; Homo sapiens, MDA-MB-436, […]) of the same compound?
Answer: 7.63

Question: `CNC(=O)c1ccc(N2CCN(Cc3cc(F)c4c(c3)[nH]c(=O)n3cc(C)nc43)CC2)c(C)n1` [Example 136, 8-((4-(2-methyl-6-(methylcarbamoyl)pyridin-3-yl)piperazin-1-yl)methyl)-2-methyl-10-fluoroimidazo[1,2-c]quinazolin-5(6H)-one] was tested. Which pIC50 [3] did it give?
Answer: 8.75

Question: And the IC50 [4]?
Answer: 931 nM

Question: What about the pIC50 ([2]; Homo sapiens, MDA-MB-436, […]) of the same compound?
Answer: 8.98

Question: `CNC(=O)c1ccc(N2CCN(Cc3cc(F)c4c(c3)[nH]c(=O)n3cc(C)nc43)CC2)c(F)n1` [Example 137, 8-((4-(2-fluoro-6-(methylcarbamoyl)pyridin-3-yl)piperazin-1-yl)methyl)-2-methyl-10-fluoroimidazo[1,2-c]quinazolin-5(6H)-one] was tested. Which pIC50 [3] did it give?
Answer: 8.67

Question: And the IC50 [4]?
Answer: 266 nM

Question: And the pIC50 ([2]; Homo sapiens, MDA-MB-436, […])?
Answer: 8.16

Question: Which results are given for `CNC(=O)c1ccc(N2CCN(Cc3ccc4c([nH]c(=O)c5cc(C)nn54)c3F)CC2)c(Cl)n1` [Example 151, 7-((4-(2-chloro-6-(methylcarbamoyl)pyridin-3-yl)piperazin-1-yl)methyl)-6-fluoro-2-methylpyrazolo[1,5-a]quinoxalin-4(5H)-one]?
Answer: pIC50 [3]: 9.30; IC50 [4]: 1210 nM; pIC50 ([2]; Homo sapiens, MDA-MB-436, […]): 8.92

Question: What does the source list for `CNC(=O)c1ccc(N2CCN(Cc3ccc4c([nH]c(=O)c5c(C)cnn54)c3F)C[C@H]2C)c(F)n1` [Example 166, (R)-6-fluoro-7-((4-(2-fluoro-6-(methylcarbamoyl)pyridin-3-yl)-3-methylpiperazin-1-yl)methyl)-3-methylpyrazolo[1,5-a]quinoxalin-4(5H)-one]?
Answer: pIC50 [3]: 9.68; IC50 [4]: 801 nM; pIC50 ([2]; Homo sapiens, MDA-MB-436, […]): 7.79

Question: `CNC(=O)c1ccc2c(n1)OC[C@H]1CN(Cc3ccc4c([nH]c(=O)c5c(C)cnn54)c3F)CCN21` [Example 167, (R)-6-fluoro-3-methyl-7-((8-methylcarbamoyl-1,2,4a,5-tetrahydropyrazino[1,2-d]pyrido[2,3-b][1,4]oxazin-3(4H)-yl)methyl)pyrazolo[1,5-a]quinoxalin-4(5H)-one] was tested. Which pIC50 [3] did it give?
Answer: 9.48

Question: And the IC50 [4]?
Answer: 397 nM

Question: And the pIC50 ([2]; Homo sapiens, MDA-MB-436, […])?
Answer: 7.73

Question: What does the source list for `CNC(=O)c1ccc(N2CCN(Cc3ccc4c([nH]c(=O)c5c(F)cnn54)c3F)CC2)c(Cl)n1` [Example 178, 7-((4-(2-chloro-6-(methylcarbamoyl)pyridin-3-yl)piperazin-1-yl)methyl)-3,6-difluoropyrazolo[1,5-a]quinoxalin-4(5H)-one]?
Answer: pIC50 [3]: 9.55; IC50 [4]: 1390 nM; pIC50 ([2]; Homo sapiens, MDA-MB-436, […]): 9.10

Question: How did the pIC50 [3] turn out when `CNC(=O)c1ccc(N2CCN(Cc3cc4[nH]c(=O)c5c(F)cnn5c4cc3F)CC2)c(Cl)n1` [Example 184, 7-((4-(2-chloro-6-(methylcarbamoyl)pyridin-3-yl)piperazin-1-yl)methyl)-3,8-difluoropyrazolo[1,5-a]quinoxalin-4(5H)-one] was run?
Answer: 9.30

Question: What about the IC50 [4] of the same compound?
Answer: 67.1 nM

Question: What about the pIC50 ([2]; Homo sapiens, MDA-MB-436, […]) of the same compound?
Answer: 8.62

Question: `[2H]C([2H])([2H])NC(=O)c1ccc(N2CCN(Cc3ccc4c([nH]c(=O)c5c(F)cnn54)c3F)CC2)c(F)n1` [Example 185, 7-((4-(2-fluoro-6-((methyl-d3)carbamoyl)pyridin-3-yl)piperazin-1-yl)methyl)-3,6-difluoropyrazolo[1,5-a]quinoxalin-4(5H)-one] was tested. Which pIC50 [3] did it give?
Answer: 9.62

Question: And the IC50 [4]?
Answer: 431 nM

Question: What about the pIC50 ([2]; Homo sapiens, MDA-MB-436, […]) of the same compound?
Answer: 9.11

Question: How did the pIC50 [3] turn out when `CNC(=O)c1ccc(N2CCN(Cc3ccc4c([nH]c(=O)c5c(Cl)c(C)nn54)c3F)CC2)c(F)n1` [Example 199, 6-fluoro-7-((4-(2-fluoro-6-(methylcarbamoyl)pyridin-3-yl)piperazin-1-yl)methyl)-2-methyl-3-chloropyrazolo[1,5-a]quinoxalin-4(5H)-one] was run?
Answer: 9.80

Question: What about the IC50 [4] of the same compound?
Answer: 17.9 nM

Question: And the pIC50 ([2]; Homo sapiens, MDA-MB-436, […])?
Answer: 8.95

Question: Which results are given for `CNC(=O)c1ccc(N2CCN(C(C)c3ccc4c([nH]c(=O)c5c(C)cnn54)c3F)CC2)c(F)n1` (stereo not drawn) [Example 204, 6-fluoro-7-(1-(4-(2-fluoro-6-(methylcarbamoyl)pyridin-3-yl)piperazin-1-yl)ethyl)-3-methylpyrazolo[1,5-a]quinoxalin-4(5H)-one]?
Answer: pIC50 [3]: 9.17; IC50 [4]: > 10000 nM; pIC50 ([2]; Homo sapiens, MDA-MB-436, […]): 7.92
